Experimental data reported in patent publication US20140303092A1 (CHIMERIX, INC., priority 2011, published 2014).
Values joined by “and” are separate entries in the source; they are usually repeats but may differ in a detail not shown here. Equal entries are not always repeated.

Tested on: CMV
Experiment: Study HDP-CDV-201: prevention or control of CMV infection in R+ HSCT recipients (efficacy)
Type: in vivo, human (adult allogeneic HSCT recipients)
Details: for Difference (HDP-CDV minus placebo) in rate of CMV DNAemia ≧1,000 copies/mL / Rate of CMV DNAemia ≧1,000 copies/mL during the treatment period: CMV modified strata: positive; for Discontinuation: Emergence of CMV disease / Discontinuation: Initiation of alternate CMV therapy: active treatment period
Experimental: The clinical study of the current invention (HDP-CDV-201) was a 9-11 week randomized, placebo-controlled, double-blind, dose-escalation study (40 mg weekly [QW], 100 mg QW, 200 mg QW, 200 mg twice-weekly [BIW], and 100 mg BIW) of HDP-CDV for the prevention of CMV infection post-HCT. Treatment was initiated at the time of engraftment and continued until Week 13 post-HCT. HDP-CDV, at various doses, was active and well tolerated in the prevention CMV infection or disease.
Clinical Studies of HDP-CDV were performed and described in detail in the following Examples. For example, HDP-CDV-201 is a placebo-controlled, dose-escalating trial in HSCT CMV (R+) recipients, evaluating the ability of HDP-CDV to prevent or control CMV infection was carried out. Five cohorts were established in which participants or subjects received either placebo or the HDP-CDV orally, in doses ranging from 40 mg weekly (QW) to 200 mg twice weekly (BIW). Subjects who were post-HSCT were enrolled at the time of engraftment and randomized to HDP-CDV or placebo (3 to 1 ratio) and received blinded therapy until approximately 100 day post-transplantation. HDP-CDV doses were 40 mg QW, 100 mg QW, 200 mg QW, 200 mg BIW and 100 mg BIW. Escalation to the next dose was decided by the data monitoring committee after review of the safety data from the previous Cohort. Subjects who developed CMV disease or CMV infection requiring pre-emptive therapy with local standard of care were discontinued from blinded therapy and followed for 4 weeks. Subjects who completed treatment with blinded therapy were followed for 8 weeks post-therapy.
The primary endpoint was defined as the incidence of CMV disease at any time during treatment or CMV DNAemia≧200 copies/mL at the end of treatment. All subjects who received at least one dose of drug/placebo and had at least one efficacy evaluation post baseline were included in the primary analysis, regardless of their CMV DNAemia status (negative or positive) at baseline (mITT population). Results for the pooled HDP-CDV Cohorts and for each Cohort separately were analyzed versus that for pooled placebo.
The primary efficacy measure for this study was treatment failure, defined as the occurrence of CMV infection, defined as CMV DNAemia>200 copies/mL at the End of Treatment or diagnosis of CMV disease at any time during the treatment period. For the analysis, the following definitions apply:
For subjects who completed the treatment phase of the study, the End of Treatment was defined as the latest assessment from date of the last dose of study drug and up to 7 days for QW dosing, or the date of the last dose of study drug and up to 4 days for BIW dosing. For subjects who discontinued during the treatment phase of the study, the End of Treatment was defined as the date of the last dose of study drug.
The time to event was defined as the period between FDD and date of first occurrence of the event of interest (inclusive). The events included onset of CMV DNAemia, onset of CMV disease, and discontinuation because of excluded anti-CMV medications. Time to event/onset was derived as (the event/onset date—FDD)+1.
As detailed in the Statistical Analysis Plan, a modified CMV stratum was defined prior to conducting the statistical analysis based upon polymerase chain reaction (PCR) results from the central laboratory. If any positive CMV DNA value in plasma was collected before the first dose of study drug (including Screening, Pre-dose, (combined Screening/Pre-dose), CMV for stratification, and FDD), then the subject was placed into the modified CMV positive (≧100 copies/mL) stratum, otherwise the subject was in the modified CMV negative stratum. […]

[1] = 40 mg QW, CMV modified strata: negative
[2] = 40 mg QW, modified CMV negative stratum
[3] = 40 mg QW, treatment period, CMV DNA negative at baseline
[4] = 40 mg QW, whole study period, CMV DNA negative at baseline
[5] = 100 mg BIW, CMV modified strata: negative

CCCCCCCCCCCCCCCCOCCCOP(=O)(O)COC(CO)Cn1ccc(N)nc1=O (stereo not drawn) [HDP-CDV]
anti-CMV activity (in words) (40 mg QW): inactive | Difference (HDP-CDV minus placebo) in infection rate [1]: 9.1% | Difference (HDP-CDV minus placebo) in rate of CMV DNAemia ≧1,000 copies/ml [1]: −9.7% | Rate of CMV DNAemia ≧1,000 copies/ml during the treatment period [1]: 22.2% | Rate of CMV Disease or End of Treatment CMV Infection [1]: 38.9% | Difference (HDP-CDV minus placebo) in rate of CMV DNAemia ≧1,000 copies/mL (40 mg QW): 2.4% | Rate of CMV DNAemia ≧1,000 copies/mL during the treatment period (40 mg QW): 85.7% | Rate of CMV Disease or End of Treatment CMV Infection (40 mg QW, aGVHD randomization strata: negative): 52.2% | Difference (HDP-CDV minus placebo) in infection rate (40 mg QW, aGVHD strata: negative): 20.1% | Discontinuation: Emergence of CMV disease (40 mg QW): 3 Subject n (%) and 3 (12.0%) Subject n (%) | Discontinuation: Initiation of alternate CMV therapy (40 mg QW): 8 (32.0%) Subject n (%) | Difference (HDP-CDV minus placebo) in rate of CMV DNAemia ≧1000 copies/mL (40 mg QW, mITT): −2.4% | Difference (HDP-CDV minus placebo) in rate of CMV disease or end of treatment CMV infection (40 mg QW, mITT): 14.7% | Subjects Receiving Antiviral Therapy and/or had CMV disease (40 mg QW, mITT): 11 (44.0%) subjects (%) | Subjects without a CMV event (40 mg QW, mITT): 14 (56.0%) subjects (%) | Time to Antiviral Therapy, Median (40 mg QW, mITT): 29.0 days | Rate of CMV Disease or End of Treatment CMV Infection (≧200 copies/ml) (40 mg QW, mITT, missing=infection): 52% | Rate of CMV DNAemia ≧1000 copies/mL during the treatment period (40 mg QW, mITT, post hoc): 40.0% | Time to Antiviral Therapy, Mean (40 mg QW, mITT, censored values not included): 27.1 days | Subjects Who Had CMV-related Event (CMV disease, CMV DNAemia ≧1,000 c/mL or initiation of anti-CMV treatment) [2]: 5 (27.8%) subjects (%) | Subjects without a CMV-related event [2]: 13 (72.2%) subjects (%) | Developed CMV DNAemia (≧100 copies/mL) during the treatment period (40 mg QW, plasma CMV DNA negative at baseline, mITT): 10 (52.6%) N(%) | Median Survival Time to CMV DNAemia (Kaplan-Meier) [3]: 51.0 days | Time to CMV DNAemia (≧100 copies/mL), Median [3]: 14.5 days | Time to CMV DNAemia (≧100 copies/mL), Mean (40 mg QW, treatment period, CMV DNA negative at baseline, censored values not included): 17.8 days | Median Survival Time to CMV DNAemia (Kaplan-Meier) (40 mg QW, whole study period): 51.0 days | Number of Subjects who had CMV DNAemia (≧100 copies/mL) by the end of study [4]: 11 | Time to CMV DNAemia (≧100 copies/mL), Mean [4]: 24.5 days | Time to CMV DNAemia (≧100 copies/mL), Median [4]: 15.0 days | % CMV Event Rate, primary: CMV DNAemia >200 copies/mL at end of treatment OR CMV disease during treatment (100 mg BIW (N = 41), CMV modified strata: negative): 2 (4.9%) subjects (%) | % CMV Event Rate, primary: CMV DNAemia >200 copies/mL at end of treatment OR CMV disease during treatment (100 mg BIW (N = 46), aGVHD strata: negative): 4 (8.7%) subjects (%) | % CMV Event Rate, primary: CMV DNAemia >200 copies/mL at end of treatment OR CMV disease during treatment (100 mg BIW (N = 50), mITT): 5 (10.0)% | CMV events (disease at any time or >200 copies at end of treatment) (100 mg BIW, CMV modified positive stratum (3 of 9)): 33% | Difference (HDP-CDV minus placebo) in infection rate [5]: −24.9% | Difference (HDP-CDV minus placebo) in rate of CMV DNAemia ≧1,000 copies/ml [5]: −31.9% | Rate of CMV DNAemia ≧1,000 copies/ml during the treatment period [5]: 0% | Rate of CMV Disease or End of Treatment CMV Infection [5]: 4.9% and 5% | Difference (HDP-CDV minus placebo) in rate of CMV DNAemia ≧1,000 copies/mL (100 mg BIW): −38.9% | Rate of CMV DNAemia ≧1,000 copies/mL during the treatment period (100 mg BIW): 44.4% | Rate of CMV Disease or End of Treatment CMV Infection (100 mg BIW, aGVHD randomization strata: negative): 9% and 8.7% | Difference (HDP-CDV minus placebo) in infection rate (100 mg BIW, aGVHD strata: negative): −23.4% | Discontinuation: Emergence of CMV disease (100 mg BIW): 1 Subject n (%) and 1 (2.0%) Subject n (%) | Discontinuation: Initiation of alternate CMV therapy (100 mg BIW): 6 (12.0%) Subject n (%) | Difference (HDP-CDV minus placebo) in rate of CMV DNAemia ≧1000 copies/mL (100 mg BIW, mITT): −34.4% | Difference (HDP-CDV minus placebo) in rate of CMV disease or end of treatment CMV infection (100 mg BIW, mITT): −27.3%
